This is an account of results in ChEMBL document CHEMBL1130085, “Substituted 3-(phenylsulfonyl)-1-phenylimidazolidine-2,4-dione derivatives as novel nonpeptide inhibitors of human heart chymase” (J Med Chem, 1997).

A word on the IC50: it is the concentration at which inhibition is half-maximal. Higher therefore signals weaker potency in that assay.

Where only a bound is given, the exact number is not on record here.

For experiment [1], the target named is Chymotrypsinogen A (Bos taurus, UniProt P00766). As to the kind of experiment: Inhibitory activity against bovine pancreas alpha-chymotrypsin in vitro.
Experiment [2] deals with T1, Cathepsin G (Homo sapiens, UniProt P08311).
T1 sequence (P08311 whole entry): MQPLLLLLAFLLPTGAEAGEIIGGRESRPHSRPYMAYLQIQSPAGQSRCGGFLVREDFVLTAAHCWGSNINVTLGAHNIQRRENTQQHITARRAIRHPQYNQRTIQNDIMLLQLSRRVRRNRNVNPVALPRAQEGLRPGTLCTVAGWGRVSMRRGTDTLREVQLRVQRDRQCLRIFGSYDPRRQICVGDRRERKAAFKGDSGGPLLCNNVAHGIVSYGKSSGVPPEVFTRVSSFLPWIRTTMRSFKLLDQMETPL
In words: Inhibitory activity against human neutrophil cathepsin G.

The target in experiment [3] is T2, Chymase (Homo sapiens, UniProt P23946).
T2 sequence (P23946 whole entry): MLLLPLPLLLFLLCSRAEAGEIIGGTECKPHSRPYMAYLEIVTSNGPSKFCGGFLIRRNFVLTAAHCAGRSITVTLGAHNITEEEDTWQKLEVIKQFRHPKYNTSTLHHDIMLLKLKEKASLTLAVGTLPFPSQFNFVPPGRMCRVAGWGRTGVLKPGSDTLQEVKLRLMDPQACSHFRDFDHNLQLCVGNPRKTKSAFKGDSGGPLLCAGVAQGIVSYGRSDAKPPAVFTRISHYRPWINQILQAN
As to the kind of experiment: Inhibitory activity against human heart chymase in vitro.

`O=C1CN(c2ccccc2)C(=O)N1S(=O)(=O)c1ccc(Oc2ccccc2)cc1`: the IC50 amounted to 8 µM in experiment [1] and 3.7 µM in experiment [2].
In the same order, the values of `O=C(O)c1ccc(N2CC(=O)N(S(=O)(=O)c3ccc(Cl)cc3)C2=O)cc1` are 42 µM and greater than 100 µM.
For `COc1ccc(N2CC(=O)N(S(=O)(=O)c3ccc(Cl)cc3)C2=O)cc1OC`, the IC50 in experiment [1] was greater than 100 µM; in experiment [2], greater than 100 µM; in experiment [3] it was 14 µM.
For the molecule `COc1ccc(S(=O)(=O)N2C(=O)CN(c3ccccc3)C2=O)cc1OC`, the IC50 was greater than 100 µM in experiment [1] and 4.1 µM in experiment [2].
With `O=C1CN(c2ccccc2)C(=O)N1S(=O)(=O)c1cccc(Cl)c1`, the IC50 was greater than 100 µM in experiment [1], 2.5 µM in experiment [2] and 0.13 µM in experiment [3].
As to `O=C(O)c1ccccc1N1CC(=O)N(S(=O)(=O)c2ccc(Cl)cc2)C1=O`, the IC50 in experiment [1] amounted to 73 µM.
For the molecule `O=C(O)c1ccc(S(=O)(=O)N2C(=O)CN(c3ccccc3)C2=O)cc1`, the values for the IC50 in experiment [1] and in experiment [2] were 44 µM and 1.9 µM, respectively.
In the same order, the values of `COC(=O)Cc1cccc(S(=O)(=O)N2C(=O)CN(c3ccccc3)C2=O)c1` are 4 µM and 5.4 µM.
`O=C1CN(S(=O)(=O)c2ccc(Cl)cc2)C(=O)N1c1ccc(Cl)cc1`: the IC50 in experiment [1] and in experiment [3] was greater than 100 µM in each case.
In the case of `O=C1CN(c2ccccc2)C(=O)N1S(=O)(=O)c1ccc(Cl)c(Cl)c1`, the values for the IC50 in experiment [1] and in experiment [3] were 3.8 µM and 0.018 µM, respectively.
With `COC(=O)Cc1ccc(S(=O)(=O)N2C(=O)CN(c3ccccc3)C2=O)cc1`, the IC50 in experiment [1] came out at 11 µM; in experiment [2], 6.5 µM.
In turn, `COC(=O)c1cccc(S(=O)(=O)N2C(=O)CN(c3ccccc3)C2=O)c1` returned an IC50 in experiment [1] of 1.7 µM.
In the case of `O=C1CN(c2ccccc2)C(=O)N1S(=O)(=O)c1ccc(Br)cc1`, the IC50 came out at 2.4 µM in experiment [1] and 0.17 µM in experiment [3].
Consider `O=C1CN(c2ccccc2)C(=O)N1C(=O)c1ccc(Cl)cc1`, for which the IC50 in experiment [1] was 0.23 µM; in experiment [2] it was 3 µM; in experiment [3], greater than 100 µM.
Turning to `O=C1CN(c2ccc(Cl)c(Cl)c2)C(=O)N1S(=O)(=O)c1ccc(Cl)cc1`, the IC50 was 4 µM in experiment [1], 22 µM in experiment [2] and 0.023 µM in experiment [3].
Regarding `Cc1ccc(S(=O)(=O)N2C(=O)CN(c3ccccc3)C2=O)cc1C`, the IC50 in experiment [1] worked out at 2 µM; in experiment [3], 0.03 µM.
`O=C1CN(c2ccccc2)C(=O)N1S(=O)(=O)c1ccccc1Cl`: the IC50 in experiment [1] is 1.2 µM; in experiment [2], 2.2 µM; in experiment [3], 1.1 µM.
As for `O=C1CN(c2ccccc2)C(=O)N1C(=O)c1ccccc1`, the IC50 in experiment [1] stood at 0.048 µM; in experiment [2], 7 µM; in experiment [3], 20 µM.
Molecule `N#Cc1cccc(S(=O)(=O)N2C(=O)CN(c3ccccc3)C2=O)c1` displayed an IC50 in experiment [1] of 0.73 µM.
With `O=C1CN(c2ccc(Cl)c(Cl)c2)C(=O)N1S(=O)(=O)c1ccc(Cl)c(Cl)c1`, the IC50 in experiment [1] is 3.7 µM; in experiment [2], 3.7 µM; in experiment [3] it was 0.17 µM.
Consider `Cc1ccc(N2CC(=O)N(S(=O)(=O)c3ccc(Cl)c(Cl)c3)C2=O)cc1C`, for which the values for the IC50 in experiment [1] and in experiment [3] were 63 µM and 0.02 µM, respectively.
For the molecule `Cc1ccc(N2CC(=O)N(S(=O)(=O)c3ccc(Cl)cc3)C2=O)cc1C`, the IC50 in experiment [1] was determined as 43 µM; in experiment [2], 3.7 µM; in experiment [3], 0.035 µM.
Consider `O=C(O)c1cccc(S(=O)(=O)N2C(=O)CN(c3ccccc3)C2=O)c1`, for which the results for the IC50 in experiment [1] and in experiment [2] were 8.5 µM and 1 µM, respectively.
As for `Cc1ccccc1S(=O)(=O)N1C(=O)CN(c2ccccc2)C1=O`, the values for the IC50 in experiment [1], in experiment [2] and in experiment [3] were 1.1 µM, 1.8 µM and 1.8 µM, respectively.
For `CC(=O)Nc1ccc(N2CC(=O)N(S(=O)(=O)c3ccc(Cl)cc3)C2=O)cc1`, the IC50 in experiment [1], in experiment [2] and in experiment [3] was greater than 100 µM each time.
As to `O=C1CN(c2ncccn2)C(=O)N1S(=O)(=O)c1ccc(Cl)cc1`, the IC50 in experiment [1] is 52 µM; in experiment [3], 33 µM.
Take `CN1CCN(C(=O)c2ccc(N3CC(=O)N(S(=O)(=O)c4ccc(Cl)cc4)C3=O)cc2)CC1`: the results for the IC50 in experiment [1], in experiment [2] and in experiment [3] were greater than 100 µM, greater than 100 µM and 27 µM, respectively.
As for `CN1CCN(C(=O)c2cccc(S(=O)(=O)N3C(=O)CN(c4ccccc4)C3=O)c2)CC1`, the IC50 in experiment [1] turned out to be 1.4 µM; in experiment [2], 4.8 µM; in experiment [3], 0.9 µM.
On to `O=C1CN(C2CCCCC2)C(=O)N1S(=O)(=O)c1ccc(Cl)cc1`, for which the figures for the IC50 in experiment [1] and in experiment [3] were 30 µM and 35 µM, respectively.
In the case of `O=C1CN(c2ccccc2)C(=O)N1S(=O)(=O)c1ccccc1`, the IC50 in experiment [1] is 1.4 µM; in experiment [2], 4.5 µM.
As for `O=C1CN(c2ccccn2)C(=O)N1S(=O)(=O)c1ccc(Cl)cc1`, the IC50 in experiment [1] is greater than 100 µM; in experiment [3] it was 18 µM.
For `COc1ccc(S(=O)(=O)N2C(=O)CN(c3ccc(C)c(C)c3)C2=O)cc1OC`, the IC50 was greater than 100 µM in experiment [1], greater than 100 µM in experiment [2] and 0.022 µM in experiment [3].
`N#Cc1ccc(S(=O)(=O)N2C(=O)CN(c3ccccc3)C2=O)cc1`: in experiment [1], the IC50 came out at 15 µM.
Take `O=C1CN(c2ccccc2)C(=O)N1S(=O)(=O)c1ccc([N+](=O)[O-])cc1`: the 50% inhibitory concentration (IC50) is 8 µM in experiment [1] and 6.5 µM in experiment [2].
Take `O=C1CN(c2ccccc2)C(=O)N1S(=O)(=O)Cc1ccccc1`: the half-inhibitory concentration (IC50) in experiment [1] is 37 µM; in experiment [3] it was greater than 100 µM.
For `O=C1CN(c2ccccc2Oc2ccccc2)C(=O)N1S(=O)(=O)c1ccc(Cl)cc1`, the IC50 was 37 µM in experiment [1] and 5.9 µM in experiment [2].
For `O=C1CN(c2ccccc2Cl)C(=O)N1S(=O)(=O)c1ccc(Cl)cc1`, the IC50 is 20 µM in experiment [1], 2 µM in experiment [2] and 0.22 µM in experiment [3].
In turn, `COC(=O)c1ccc(S(=O)(=O)N2C(=O)CN(c3ccccc3)C2=O)cc1` returned an IC50 in experiment [1] of 1.8 µM.
Consider `Cc1ccc(N2CC(=O)N(S(=O)(=O)c3ccc(C)c(C)c3)C2=O)cc1C`, for which, in experiment [1], the IC50 was greater than 100 µM.
Regarding `O=C(O)c1cccc(N2CC(=O)N(S(=O)(=O)c3ccc(Cl)cc3)C2=O)c1`, the IC50 in experiment [1] and in experiment [2] was greater than 100 µM each time.
`O=C1CN(c2cccc(Cl)c2)C(=O)N1S(=O)(=O)c1ccc(Cl)cc1`: the IC50 turned out to be 0.2 µM in experiment [1] and 0.066 µM in experiment [3].
For the molecule `O=C1CN(c2ccccc2)C(=O)N1S(=O)(=O)c1ccc(Cl)cc1`, in experiment [1], the IC50 was 1.1 µM. This counts as single-digit micromolar.
As for `CN1CCN(C(=O)c2ccc(S(=O)(=O)N3C(=O)CN(c4ccccc4)C3=O)cc2)CC1`, the IC50 in experiment [1] came out at 6.4 µM; in experiment [3], 3.3 µM.
`COc1ccc(S(=O)(=O)N2C(=O)CN(c3ccccc3)C2=O)cc1`: the IC50 was determined as 5.8 µM in experiment [1] and 4.2 µM in experiment [2].
In the case of `O=C1CN(c2ccccc2)C(=O)N1S(=O)(=O)c1ccc(F)cc1`, the 50% inhibitory concentration (IC50) in experiment [1] was 2.6 µM; in experiment [2], 1.5 µM; in experiment [3] it was 0.37 µM.
Turning to `O=C(OCN1C(=O)CN(c2ccccc2)C1=O)c1ccccc1`, the IC50 in experiment [1], in experiment [2] and in experiment [3] was greater than 100 µM each time.
